Test results taken from patent US9408891B2, “Methods of using gelsolin to treat or prevent bacterial sepsis” (priority 2003, dated 2016).
Entries after “also recorded” stand apart in the source; their conditions may differ.

Experiments:
[1] = target: T1, gelsolin activity in whole human serum (Homo sapiens, UniProt P06396); experiment: Actin filament severing activity of whole human serum; type: biochemical; conditions: larger amounts needed than with pure gelsolin
T1 construct: from tissue; host or cells: whole human serum (2.5 µl)
Protocol: As shown, recombinant human gelsolin (rhGLS) (FIG. 4A) and blood serum (FIG. 4B) severing activity was measured in 0.4 μM pyrene-labeled F-actin samples (polymerized with 50% pyrene-labeled G-actin), after adding gelsolin (16 nM)/serum (2.5 μl), or their combination with one of the following: LPS (from different species), PIP2 (phosphatidyl-inositol-4,5-bisphosphate), LPA (lysophosphatidic acid), lipid A (the LPS derivative lacking polysaccharide) or PS (phosphatidylserine). The fluorescence intensity of F-pyrene actin was then monitored for 10 minutes, and the severing activity was calculated based on decreasing fluorescence. Severing activity was determined from a decrease in rate of fluorescence during depolymerization, and the depolymerization rate was calculated from the slope of the early decrease in fluorescence.

[2] = target: T2, PBP10 (PIP2-binding site of gelsolin) (Homo sapiens, UniProt P06396); experiment: Rhodamine-B fluorescence change of gelsolin peptide PBP10 after adding lipids; conditions: 2 μM peptide, buffer A pH 7.0, 15 min
T2 construct: made in house; host or cells: solid phase peptide synthesis
Protocol: (§1) Therefore, to determine changes of gelsolin OD at 280 nm, different amounts of LPS, LPA and PS were added to recombinant human gelsolin (rhGLS) solutions and OD emission spectra were recorded using spectrophotometer Genesys 6 (Thermo-Spectronic, USA).
Interaction of LPS and gelsolin was examined using rhodamine B- and pyrene-labeled SEQ ID No:1 (QRLFQVKGRR). The effect of LPS on gelsolin was determined in terms of the rhodamine-B fluorescent changes of PBP10 peptide in the presence of different lipids (FIG. 1C); and the fluorescence emission spectra of pyrene-labeled SEQ ID No:1 (2 μM) in the presence of LPS from Escherichia coli (1.2 μM), PIP2 (0.82 μM) and LPA (0.82 μM) (FIG. 1D) The results using the pyrene-derivatized gelsolin peptide confirmed the LPS induced clustering of the peptide with resulting excimer fluorescence of the pyrene group, which was evident as a large increase in fluorescence emission at 480 nm.
The tested gelsolin concentration was 50 nM; LTA ranged from 0-50 μM; Pyrene-F-actin was 0.3 μM. Recording changes in fluorescently-labeled (rhodamine B-labeled) gelsolin peptide PBP10 (10 μM), indicates a specific interaction between gelsolin and LTA.

[3] = target: T3, recombinant human gelsolin (rhGLS) (Homo sapiens, UniProt P06396); experiment: Change of gelsolin OD at 280 nm after adding lipids; type: binding; conditions: OD 280 nm
T3 construct: purchased Biogen IDEC, Inc., Cambridge, Mass; host or cells: E. coli
Protocol: as §1

[4] = tested on: human aortic endothelial cells (HAEC); experiment: LPS-induced actin cytoskeleton disassembly, phalloidin staining, endothelial cells; type: cell-based; conditions: LPS 10 μg/ml, 10 min
Description: (§2) In light of the findings in the previous Examples, and using the materials prepared in above, the effect of the gelsolin binding by LPS was studied to determine the effect on cellular responses in vitro. Cell cultures of human aortic endothelial cells (HAEC) and rat primary astrocytes were used to evaluate the effect of LPS on actin. Both of these cell types have mCD14 (membrane bound C14) and TLR LPS receptors (Faure, et al., J. Biol. Chem. 275:11058-11063 (2000); Bsibsi, et al., J. Neuropathol. Exp. Neurol. 61:1013-1021 (2002); Bowman, et al., Glia 43:281-291 (2003)).
HAECs (primary human aortic endothelial cells) (ATCC, Rockville, Md. or Clonetics, San Diego, Calif.), will grow to confluence through passages 5-9 in endothelial cell growth medium supplemented with 2% fetal bovine serum, 10 μg/liter human recombinant epidermal growth factor, 1 mg/liter hydrocortisone, 50 μg/ml gentamicin, 50 ng/ml amphotericin-B, in a 37° C. humidified atmosphere of 95% air:5% C02.
(§3) HAECs and astrocytes cultures were incubated for 10 minutes in medium containing 10 μg/ml LPS alone, or LPS that had been pre-incubated with 0.16 mg/ml of human gelsolin. […] Location of transcription factor nuclear factor-kappaB (NF-κB) was observed using a monoclonal antibody to NF-κB (Molecular Probes), and cell nuclei were detected by counter-staining with 4′, 6-diamidino-2-phenylindole dihydrochloride (DAPI) (Sigma).

[5] = target: T4, Gc-globulin (vitamin D-binding protein) (Homo sapiens, UniProt P02774); experiment: Actin-sequestering activity of Gc-globulin; type: biochemical; conditions: LPS at least up to 100 μM
T4 sequence (P02774 17-474): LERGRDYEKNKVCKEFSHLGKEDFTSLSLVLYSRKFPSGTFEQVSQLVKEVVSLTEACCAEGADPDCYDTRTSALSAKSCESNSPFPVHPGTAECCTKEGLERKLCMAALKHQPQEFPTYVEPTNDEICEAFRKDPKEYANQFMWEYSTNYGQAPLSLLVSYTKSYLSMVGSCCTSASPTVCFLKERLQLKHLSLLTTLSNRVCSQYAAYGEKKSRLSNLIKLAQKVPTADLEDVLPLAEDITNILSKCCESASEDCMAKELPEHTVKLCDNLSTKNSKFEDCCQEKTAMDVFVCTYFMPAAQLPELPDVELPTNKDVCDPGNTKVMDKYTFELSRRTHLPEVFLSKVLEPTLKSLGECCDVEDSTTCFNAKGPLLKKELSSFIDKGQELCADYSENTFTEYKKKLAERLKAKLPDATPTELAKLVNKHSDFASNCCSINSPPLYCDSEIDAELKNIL

rat primary astrocytes = experiment: LPS-induced actin cytoskeleton disassembly, phalloidin staining, astrocytes; type: cell-based; conditions: LPS 10 μg/ml, 10 min
Description: as §2
Rat primary astrocytes were obtained from prenatal rats and maintained for 14 days in culture before use. Embryos (E17-E19) were removed by caesarian section from a Sprague-Dawley rat and the hippocampi were surgically removed. The tissue was digested in trypsin/DNAse at 37° C., centrifuged (1000×5 min) and filtered to derive suspensions from each pup. […]
as §3

T1 sequence (P06396 28-782): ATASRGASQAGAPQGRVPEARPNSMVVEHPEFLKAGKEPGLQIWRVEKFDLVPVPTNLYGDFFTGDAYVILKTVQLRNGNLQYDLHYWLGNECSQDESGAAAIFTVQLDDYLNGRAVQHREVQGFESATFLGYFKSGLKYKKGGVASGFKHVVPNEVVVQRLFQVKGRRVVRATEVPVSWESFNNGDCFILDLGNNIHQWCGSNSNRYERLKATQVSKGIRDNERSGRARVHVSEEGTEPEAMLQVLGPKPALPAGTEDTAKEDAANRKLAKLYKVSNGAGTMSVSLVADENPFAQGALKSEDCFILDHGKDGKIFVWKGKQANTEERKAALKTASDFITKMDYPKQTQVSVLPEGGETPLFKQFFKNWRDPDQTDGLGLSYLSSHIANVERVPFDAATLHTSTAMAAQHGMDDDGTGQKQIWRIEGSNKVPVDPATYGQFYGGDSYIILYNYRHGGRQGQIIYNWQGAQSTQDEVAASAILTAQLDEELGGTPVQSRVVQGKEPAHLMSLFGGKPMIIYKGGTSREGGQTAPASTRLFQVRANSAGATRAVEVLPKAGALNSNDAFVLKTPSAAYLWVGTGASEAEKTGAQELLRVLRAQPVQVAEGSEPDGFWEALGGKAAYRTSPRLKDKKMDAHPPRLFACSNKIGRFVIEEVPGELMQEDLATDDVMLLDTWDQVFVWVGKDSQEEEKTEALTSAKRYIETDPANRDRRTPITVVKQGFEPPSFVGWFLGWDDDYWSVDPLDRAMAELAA
T3 sequence (P06396 28-782): as above

lipopolysaccharide [LPS]
inhibition of gelsolin activity in whole human serum [1]: able to inhibit gelsolin activity; also recorded: inhibitory efficiency varies with the bacterial species | fluorescence quenching / change of rhodamine-B peptide [2]: induced identical concentration-dependent fluorescence quenching | maximal decrease in UV absorbance of intact gelsolin [3]: ~35% | effect of LPS alone on actin cytoskeleton [4]: rapidly induced the disassembly of the actin cytoskeleton; also recorded: disassembly of the actin cytoskeleton was readily induced; also recorded: rapidly induced disassembly of the actin cytoskeleton | effect on actin-sequestering activity of Gc-globulin [5]: unaffected | effect of LPS alone on actin cytoskeleton (rat primary astrocytes): rapidly induced the disassembly of the actin cytoskeleton; also recorded: disassembly of the actin cytoskeleton was readily induced; also recorded: rapidly induced disassembly of the actin cytoskeleton
